Assay results as given in US11279079B2, “Cell electrochemical sensor based on 3D printing technology and application thereof” (Jiangnan University, priority 2020, dated 2022).

Assays:
[1] = pigs, in vivo; cited from earlier work
[2] = tested on: lung adenocarcinoma epithelial cells A549; test: Cell electrochemical sensor (3D-printed A549/carbon nanofiber/GelMA on screen-printed carbon electrode), EIS cytotoxicity and combination index evaluation; format: cell-based, human; conditions: for IC50 value measured by the EIS method: A549 cell sensor of example 1, 24 hours toxin stimulation, single toxin or combined effect; for impedance value of the cell sensor with increasing dose: concentration range of 0.1-5 μg/mL, 24 hours
Experimental: In an embodiment of the disclosure, the cell sensor needs to be incubated before application, and specific operations comprise: dropping a DMEM cell culture medium at a working electrode of a screen-printed carbon electrode to ensure that the culture medium can cover a cell/carbon nanofiber/GelMA complex on the working electrode to provide cells with nutrients needed for growth, and then placing the working electrode in an incubator with the carbon dioxide concentration of 5% and the humidity of 95% for incubation at 37° C. for 6-12 hours; after incubation, removing the original culture medium on the working electrode, diluting toxin standard substances with the DMEM cell culture medium into gradient concentration solutions, dropping the gradient concentration solutions on the working electrode printed with cells, and then carrying out electrochemical detection after placing the working electrode in the incubator for effect for 24 hours.
In an embodiment of the disclosure, the method uses a modified screen-printed carbon electrode as a sensing interface, a PET material is used as a substrate, the working electrode is composed of carbon, the reference electrode is composed of silver/silver chloride, the counter electrode is composed of carbon, electrochemical detection adopts electrochemical impedance spectroscopy (EIS) to test electrical signal changes of cells stimulated by toxins, the initial potential is 0.2 V, and the frequency range is 1 Hz-10^5 Hz.
In an embodiment of the disclosure, the electrochemical AC impedance method (EIS) measures the signals obtained by the electrochemical sensor stimulated by different concentrations of toxins, the impedance value is calculated by fitting the equivalent circuit with Zview software, the cell viability inhibition rates of different concentrations of toxins are calculated, and the calculation method is as follows: […]
(1) Drug stimulation: An original culture medium on a working electrode is removed, toxin standard substances are diluted with a DMEM cell culture medium into gradient concentration solutions, and then 150 μL of DON toxin solutions in the concentration range of 0.1, 0.2, 0.5, 1, 2 and 5 μg/mL, 150 μL of 15-ADON toxin solutions in the concentration range of 0.1, 0.2, 0.5, 1, 2 and 5 μg/mL and 150 μL of DON+15-ADON toxin solutions in the concentration range of 0.1+0.1, 0.2+0.2, 0.5+0.5, 1+1, 2+2 and 5+5 μg/mL are taken and dropped on the working electrode printed with cells respectively, the working electrode is placed in an incubator for effect for 24 hours, and corresponding impedance values are measured. […]

Compound	conversion into DON in blood [1]	IC50 value measured by the EIS method [2] [µg/mL]	impedance value of the cell sensor with increasing dose [2]
CC(=O)O[C@@H]1C[C@]2(C)[C@@]3(CO)[C@H](O)C(=O)C(C)=C[C@H]3O[C@H]1[C@@]21CO1 [3-ADON]	quickly converted into DON	–	–
CC(=O)OC[C@]12[C@H](O)C(=O)C(C)=C[C@H]1O[C@@H]1[C@H](O)C[C@@]2(C)[C@]12CO2 [15-ADON, 15-acetyl-deoxynivalenol]	–	1.2560	gradually reduced
CC1=C[C@H]2O[C@@H]3[C@H](O)C[C@](C)([C@@]2(CO)[C@H](O)C1=O)[C@]31CO1 [DON, deoxynivalenol]	–	0.9281	gradually reduced
